The target of assay [1] is Adenosine receptor A2a (Homo sapiens, UniProt P29274). Description: Binding affinity for human adenosine A2A receptor in CHO cells using [3H]CGS-21680. It is filed as cell-based.
In assay [2] the target is Adenosine receptor A2a (Rattus norvegicus, UniProt P30543). Nature of the assay: Binding affinity for rat adenosine A2A receptor in rat brain homogenates using [3H]CGS-21680.
Assay [3] concerns the target T1, Adenosine receptor A1 (Rattus norvegicus, UniProt P25099).
T1 sequence (P25099 whole entry): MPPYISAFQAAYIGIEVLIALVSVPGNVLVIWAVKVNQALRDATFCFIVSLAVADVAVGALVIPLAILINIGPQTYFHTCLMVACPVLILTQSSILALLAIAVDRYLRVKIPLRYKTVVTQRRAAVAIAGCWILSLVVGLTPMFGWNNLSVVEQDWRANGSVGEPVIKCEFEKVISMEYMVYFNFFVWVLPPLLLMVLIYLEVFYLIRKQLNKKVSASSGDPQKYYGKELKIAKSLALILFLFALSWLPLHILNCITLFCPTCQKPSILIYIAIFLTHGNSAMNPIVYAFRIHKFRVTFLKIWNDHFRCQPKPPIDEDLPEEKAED
Nature of the assay: Binding affinity for rat Adenosine A1 receptor in rat brain homogenates using [3H]N6-(R)-phenylisopropyladenosine.

Assay [4] concerns the target Adenosine receptor A2a (Rattus norvegicus) (UniProt P30543). Nature of the assay: Percent displacement of [3H]-CGS-21,680 from rat adenosine A2A receptor in rat brain homogenates at 1 uM.
Assay [5] has as its target T2, Adenosine receptor A3 (Homo sapiens, UniProt P0DMS8).
T2 sequence (P0DMS8 whole entry): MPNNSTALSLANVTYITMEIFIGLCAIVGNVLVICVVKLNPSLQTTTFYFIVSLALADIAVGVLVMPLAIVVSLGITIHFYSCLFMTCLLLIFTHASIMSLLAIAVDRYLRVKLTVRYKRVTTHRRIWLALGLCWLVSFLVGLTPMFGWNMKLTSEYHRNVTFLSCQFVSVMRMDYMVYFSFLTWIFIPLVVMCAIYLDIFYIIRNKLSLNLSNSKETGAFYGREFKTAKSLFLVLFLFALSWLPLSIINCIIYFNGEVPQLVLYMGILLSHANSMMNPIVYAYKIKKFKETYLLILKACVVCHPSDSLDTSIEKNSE
Description: Inhibitory concentration against human Adenosine A3 receptor mediated inhibition of cyclic AMP in transfected CHO cells. The class given is functional, cell-based.

Drawing on ChEMBL document CHEMBL1145992, “N6-substituted D-4'-thioadenosine-5'-methyluronamides: potent and selective agonists at the human A3 adenosine receptor” (J Med Chem, 2003), this text covers Ki, Displacement and IC50 for two molecules.

For orientation: Ki means the dissociation constant of the complex between target and ligand, obtained from inhibition or displacement. One may read the IC50 as the concentration needed to halve the response being measured.

Adenosine receptor A2a (Homo sapiens, UniProt P29274), sequence (P29274 whole entry): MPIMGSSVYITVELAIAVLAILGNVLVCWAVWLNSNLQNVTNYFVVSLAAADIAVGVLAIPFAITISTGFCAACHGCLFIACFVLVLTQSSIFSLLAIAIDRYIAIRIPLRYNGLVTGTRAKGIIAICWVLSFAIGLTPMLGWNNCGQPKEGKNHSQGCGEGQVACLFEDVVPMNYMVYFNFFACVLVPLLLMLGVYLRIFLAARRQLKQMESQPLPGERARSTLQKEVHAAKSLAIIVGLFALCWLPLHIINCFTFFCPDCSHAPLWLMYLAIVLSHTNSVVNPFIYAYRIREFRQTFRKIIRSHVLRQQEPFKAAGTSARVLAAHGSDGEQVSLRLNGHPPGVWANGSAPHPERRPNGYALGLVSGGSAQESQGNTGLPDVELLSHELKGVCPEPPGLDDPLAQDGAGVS
Adenosine receptor A2a (Rattus norvegicus), sequence (P30543 whole entry): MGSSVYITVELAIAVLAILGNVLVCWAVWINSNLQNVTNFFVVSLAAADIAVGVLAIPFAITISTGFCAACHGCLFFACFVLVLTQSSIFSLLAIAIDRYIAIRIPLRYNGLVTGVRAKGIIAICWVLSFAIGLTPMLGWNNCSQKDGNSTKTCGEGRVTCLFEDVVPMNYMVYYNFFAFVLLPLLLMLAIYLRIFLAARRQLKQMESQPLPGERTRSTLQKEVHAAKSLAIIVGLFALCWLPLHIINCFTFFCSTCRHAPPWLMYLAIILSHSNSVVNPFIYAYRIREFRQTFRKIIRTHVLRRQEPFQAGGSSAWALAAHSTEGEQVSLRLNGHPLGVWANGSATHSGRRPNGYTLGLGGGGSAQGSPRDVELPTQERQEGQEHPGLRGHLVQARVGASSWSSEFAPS
Adenosine receptor A2a (Rattus norvegicus, UniProt P30543), sequence (P30543 whole entry): as above

Regarding `CNC(=O)[C@H]1S[C@@H](n2cnc3c(NCc4cccc(I)c4)nc(Cl)nc32)[C@H](O)[C@@H]1O`, the Ki was 223 nM in assay [1], 348 nM in assay [2] and 140 nM in assay [3].

In assay [4], `CNC(=O)[C@H]1S[C@@H](n2cnc3c(N)nc(Cl)nc32)[C@H](O)[C@@H]1O` displayed a Displacement of less than 10%. In assay [5], this molecule yielded an IC50 of 1 nM.
